For test [1], the target named is T1, human STING (HAQ) (Homo sapiens (Human), UniProt Q86WV6, G230A/H232R/R293Q). The experiment in a line: Differential scanning fluorimetry (DSF), huSTING (HAQ). Particulars: compound 100 μM, 2 μM protein, Tm with ligand minus Tm of protein alone (1% DMSO). The test is classed as binding. The method, then:
(§1) Data were analyzed using “Meltdown analysis” protocol described by Rosa (2015).
(In DSF a fluorescence change marks the thermal transition of the protein.)

In test [2] the target is T2, human STING (WT) (Homo sapiens (Human), UniProt Q86WV6, H232R). The experiment in a line: Differential scanning fluorimetry (DSF), huSTING (WT). The test is classed as binding. Particulars: compound 100 μM, 2 μM protein, Tm with ligand minus Tm of protein alone (1% DMSO). As for the experimental part: as §1
In test [3] the target is human HAQ isoform of STING (Homo sapiens (Human), UniProt Q86WV6, G230A/H232R/R293Q/R71H). The experiment in a line: THP-1 STING Lucia ISG reporter cell line assay. It is filed as cell-based. Particulars: 24 h incubation, luminescence, normalized to ML RR-S2 CDA 40 μM; read-out: EC50 THP-I STING Lucia ISG cells. The method, then: (§2) THP-1 STING Lucia ISG cells (InvivoGen #thpl-isg) were cultured in RPMI-1640 containing 2 mM L-glutamine, 25 mM HEPES, 100 μg/mL Normocin (InvivoGen) and 10% heat-inactivated FBS. Cells were seeded at a density of 7×10^5 cells/mL, maintained at 37° C./5% CO2, and passaged every 3-4 days. Selection pressure was maintained by the addition of 100 μg/mL Zeocin every second passage.
(§3) Assay conditions: cells were harvested and resuspended at a concentration of 5×10^5 cells/mL in fresh growth media. Of this cell preparation 20 μL per well was dispensed into 384 well cell culture plates (Greiner, #781098X) and incubated at 37° C./5% CO2 for 2 hours.
(§4) Concentration Response Curves (commonly 11 doses) were prepared by 2.5 fold serial dilution starting from 10 mM compound stock solution in DMSO. Compound dilutions were transferred into the cell culture plates using a pintool (0.1 μL transfer), control wells were matched for DMSO. Positive control wells received ML RR-S2 CDA (Med Chem Express HY12885B) in 5 μL of media to a final concentration of 40 μM. All other wells received additional 5 μL of media only to equalize volume. The plates were incubated for 24 h at 37° C./5% CO2.
(§5) For the detection step, QUANTI-Luc (InvivoGen #rep-qlc1) was prepared according to manufacturer's instruction and 10 μL were added per well to the culture plates. Plates were shaken for ten seconds on an orbital shaker and left in the dark at room temperature for two minutes, before luminescence was read on a Perkin Elmer Envision plate reader.
(§6) Data analysis: Luminescence raw data was normalized % activity relative to the signal of the positive control wells and negative control wells which were not treated with compound. The following formula was used to calculate normalized % activity from raw signals: % activity=(sample−negative)/(positive−negative)
(§7) The THP-1 STING Lucia ISG cell EC50 provides an assessment of activity at the human HAQ isoform of STING. For assessing compound activity against the WT human STING isoform, an equivalent method was conducted where the cells used were THP-1-Dual KI-hSTING-R232 (InvivoGen #thpd-r232).

Test [4] addresses WT human STING isoform (Homo sapiens (Human), UniProt Q86WV6, H232R). As to the kind of experiment: THP-1-Dual KI-hSTING-R232 reporter cell line assay. It is filed as cell-based. Particulars: 24 h incubation, luminescence, normalized to ML RR-S2 CDA 40 μM; read-out: EC50 THP-1 Dual KI-hSTING-R232 cells. As for the experimental part: as §2, §3, §4, §5, §6, §7
Test [5] deals with T1, human STING (HAQ). The experiment in a line: biochemical.
The target in test [6] is T2, human STING (WT). The experiment in a line: biochemical.
For test [7], the target named is T2, human STING (WT). The experiment in a line: Surface Plasmon Resonance (SPR), STING (WT). Particulars: read-out: SPR (WT) KD; biotinylated STING on streptavidin chip, 8° C.
Test [8] addresses T1, human STING (HAQ). The experiment in a line: Surface Plasmon Resonance (SPR), STING (HAQ). Particulars: read-out: SPR (HAQ) KD; biotinylated STING on streptavidin chip, 8° C.

WT human STING isoform, sequence (Q86WV6 whole entry H232R, canonical isoform): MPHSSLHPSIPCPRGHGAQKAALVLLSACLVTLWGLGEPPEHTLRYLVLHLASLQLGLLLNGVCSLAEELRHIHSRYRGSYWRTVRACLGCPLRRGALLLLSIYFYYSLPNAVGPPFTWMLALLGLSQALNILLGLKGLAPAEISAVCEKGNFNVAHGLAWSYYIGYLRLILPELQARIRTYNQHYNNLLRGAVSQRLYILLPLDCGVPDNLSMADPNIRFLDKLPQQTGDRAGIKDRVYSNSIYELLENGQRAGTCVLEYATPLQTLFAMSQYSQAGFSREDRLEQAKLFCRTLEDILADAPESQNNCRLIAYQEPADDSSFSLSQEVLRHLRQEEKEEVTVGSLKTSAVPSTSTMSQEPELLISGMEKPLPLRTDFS
T2 sequence (Q86WV6 149-345 H232R): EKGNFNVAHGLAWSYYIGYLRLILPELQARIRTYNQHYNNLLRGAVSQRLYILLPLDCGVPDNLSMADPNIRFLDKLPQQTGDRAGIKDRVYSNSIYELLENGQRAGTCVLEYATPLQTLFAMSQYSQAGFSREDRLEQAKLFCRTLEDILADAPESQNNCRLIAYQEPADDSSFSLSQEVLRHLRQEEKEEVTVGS
human HAQ isoform of STING, sequence (Q86WV6 whole entry R71H/G230A/H232R/R293Q, canonical isoform): as the sequence (Q86WV6 whole entry H232R, canonical isoform) above, with R71H, G230A, R293Q counted along it
T1 sequence (Q86WV6 149-345 G230A/H232R/R293Q): as the sequence (Q86WV6 149-345 H232R) above, with G82A, R145Q counted along it

Consider `NC(=O)c1ccc2c(c1)nc(-c1c(C(=O)O)sc3cccc(Cl)c13)n2CCCn1c(-c2c(C(=O)O)sc3cccc(Cl)c23)nc2cc(C(N)=O)ccc21` (single isomer, unassigned) [Example 4.2, 3,3′-(Propane-1,3-diylbis(5-carbamoyl-1H-benzo[d]imidazole-1,2-diyl))bis(4-chlorobenzo[b]thiophene-2-carboxylic acid)], for which the ΔTm at 100 µM in test [1] was found to be 4.56 °C. The “DSF huSTING (WT) ΔTm” value in test [2] is −0.76 °C. Besides, the EC50 was above 40 µM in test [3] and 19 µM in test [4]. The values for the Kd in test [5] and in test [6] were 16.6 µM and 23 µM, respectively.

For the compound `NC(=O)c1ccc2c(c1)nc(-c1c(C(=O)O)sc3cccc(Br)c13)n2CCn1c(-c2c(C(=O)O)sc3cccc(Br)c23)nc2cc(C(N)=O)ccc21` (single isomer, unassigned) [Example 11.1, 3,3′-(Ethane-1,2-diylbis(5-carbamoyl-1H-benzo[d]imidazole-1,2-diyl))bis(4-bromobenzo[b]thiophene-2-carboxylic acid)], the “DSF huSTING (HAQ) ΔTm” value in test [1] came out at 31.05 °C. Moreover, the “DSF huSTING (WT) ΔTm” value in test [2] came out at 17.83 °C. Moreover, the figures for the EC50 in test [3] and in test [4] were 0.182 µM and 0.172 µM, respectively. Further, the dissociation constant Kd in test [7] stood at 0.063 µM; in test [8], 0.00164 µM.

Take `COc1ccc(F)c2sc(C(=O)O)c(-c3nc4cc(C(N)=O)ccc4n3CCn3c(-c4c(C(=O)O)sc5c(F)ccc(OC)c45)nc4cc(C(N)=O)ccc43)c12` (single isomer, unassigned) [Example 13.1, 3,3′-(Ethane-1,2-diylbis(5-carbamoyl-1H-benzo[d]imidazole-1,2-diyl))bis(7-fluoro-4-methoxybenzo[b]thiophene-2-carboxylic acid)]: the “DSF huSTING (HAQ) ΔTm” value in test [1] was found to be 31.23 °C. For the same compound, the “DSF huSTING (WT) ΔTm” value in test [2] amounted to 18.17 °C. Besides, the EC50 amounted to 8.31 µM in test [3] and 3.75 µM in test [4]. For the same compound, the dissociation constant Kd in test [7] was determined as 0.3 µM; in test [8], 0.004 µM.

As for `Cc1cccc2sc(C(=O)O)c(-c3nc4cc(C(N)=O)ccc4n3CCn3c(-c4c(C(=O)O)sc5cccc(C)c45)nc4cc(C(N)=O)ccc43)c12` (single isomer, unassigned) [Example 15.2, 3,3′-(Ethane-1,2-diylbis(5-carbamoyl-1H-benzo[d]imidazole-1,2-diyl))bis(4-methylbenzo[b]thiophene-2-carboxylic acid)], the “DSF huSTING (HAQ) ΔTm” value in test [1] is 31.87 °C. In test [2], the “DSF huSTING (WT) ΔTm” value was found to be 20.41 °C. In addition, the EC50 in test [3] came out at 0.272 µM; in test [4], 0.199 µM. Also, the Kd was determined as 0.191 µM in test [7] and 0.00498 µM in test [8].

Take `NC(=O)c1ccc2c(c1)nc(-c1c(C(=O)O)sc3c(F)ccc(Br)c13)n2CCn1c(-c2c(C(=O)O)sc3c(F)ccc(Br)c23)nc2cc(C(N)=O)ccc21` (single isomer, unassigned) [Example 20.1, 3,3′-(Ethane-1,2-diylbis(5-carbamoyl-1H-benzo[d]imidazole-1,2-diyl))bis(4-bromo-7-fluorobenzo[b]thiophene-2-carboxylic acid)]: in test [1], the “DSF huSTING (HAQ) ΔTm” value was found to be 31.76 °C. In test [2], the “DSF huSTING (WT) ΔTm” value was 22.71 °C. Moreover, the concentration giving a half-maximal response (EC50) in test [3] turned out to be 1.58 µM; in test [4] it was 0.632 µM. For the same compound, the equilibrium dissociation constant (Kd) in test [7] turned out to be 0.016 µM; in test [8], 0.00165 µM.

Take `NC(=O)c1ccc2c(c1)nc(-c1c(C(=O)O)sc3cccc(Cl)c13)n2CCCCn1c(-c2c(C(=O)O)sc3cccc(Cl)c23)nc2cc(C(N)=O)ccc21` [Example 3, 3,3′-(Butane-1,4-diylbis(5-carbamoyl-1H-benzo[d]imidazole-1,2-diyl))bis(4-chlorobenzo[b]thiophene-2-carboxylic acid)]: the ΔTm at 100 µM is -0.55 °C in test [1] and -1.83 °C in test [2]. Besides, the EC50 in test [3] and in test [4] was above 40 µM each time. In addition, the Kd is 6.3 µM in test [7] and 5.06 µM in test [8].

Regarding `COc1nccc2sc(C(=O)O)c(-c3nc4cc(C(N)=O)ccc4n3CCn3c(-c4c(C(=O)O)sc5ccnc(OC)c45)nc4cc(C(N)=O)ccc43)c12` [Example 7, 3,3′-(Ethane-1,2-diylbis(5-carbamoyl-1H-benzo[d]imidazole-1,2-diyl))bis(4-methoxythieno[3,2-c]pyridine-2-carboxylic acid)], the ΔTm at 100 µM in test [1] stood at 6.96 °C; in test [2], 0.6 °C. In addition, the EC50 in test [3] is above 40 µM; in test [4], 7.52 µM. For the same compound, the results for the equilibrium dissociation constant (Kd) in test [7] and in test [8] were 80 µM and 28 µM, respectively.

For `CCOC(=O)c1sc2cccc(Cl)c2c1-c1nc2cc(C(N)=O)ccc2n1CCn1c(-c2c(C(=O)OCC)sc3cccc(Cl)c23)nc2cc(C(N)=O)ccc21` [Example A1, Diethyl 3,3′-(ethane-1,2-diylbis(5-carbamoyl-1H-benzo[d]imidazole-1,2-diyl))bis(4-chlorobenzo[b]thiophene-2-carboxylate)], the ΔTm at 100 µM in test [1] was found to be 0.36 °C; in test [2], 1.84 °C. The EC50 in test [3] is 18.4 µM; in test [4], 12 µM. Also, the Kd in test [7] is 16 µM; in test [8] it was 14.9 µM.

One may read the ΔTm as the change in melting temperature against a reference sample. Broadly, the EC50 is the midpoint of the concentration-response curve. Usually Kd stands for the equilibrium constant for the complex coming apart.

(Values after patent US12384801B2, “Benzothiophene, thienopyridine and thienopyrimidine derivatives for the modulation of sting” (CTXT PTY LTD, priority 2019, dated 2025).)
